Structures can show the parent of a compound that is named as a salt.
Tests used:
Mäuse [1] = experiment: Thresholds of emotional reactivity and aggressiveness on electric pain stimulation, mice; type: in vivo
From the text: Es wurde auch die emotionelle Aktivität und Aggressivität der Tiere auf dem Wege der elektrischen Schmerzreizung untersucht.
In einer Kammer von 20 x 20 x 25 cm Ausmass, deren Boden - ein Metallgitter aus Stangen darstellt, wurde ein Paar Tiere untergebracht (männliche Mäuse) und es wurde der Wechselstrom durchgelassen. Die Spannung wurde dosenartig auf 5 V solange erhöht, bis der Strom das Piepsen (die Schwelle der emotionellen Reaktivität) und die Schlägerei der Tiere (die Schwelle der Aggressivität) auslöste. Jede Spannungsgrösse wurde innerhalb von 5 sec zweimal in einem Zeitabstand von 20 bis 50 Sekunden aufrechterhalten. Die Kontrolle des Benehmens der Tiere begann man I0 Minuten nach der Einführung der oben erwähnten Verbindungen. Die Angaben sind in Tabellen 3, 4 angeführt.

Ratten [2] = experiment: Thresholds of emotional reactivity and aggressiveness on electric pain stimulation, rats; type: in vivo
Mäuse [3] = experiment: Hypoxia by subcutaneous Natriumnitroprussid, survival, mice; type: in vivo
Experimental: (§1) Die […] Hypoxie wurde durch die subkutane Einführung von Natriumnitroprussid in einer Dosis von 20 mg/kg den Gruppen von Mäusen und Ratten zu I0 Stück in der Gruppe erzeugt. Natriumnitroprussid wurde 60 min nach der Einführung der Prüfverbindungen verabreicht. Die Angaben sind in Tabelle I5 (für Mäuse) und I6 (für Ratten) angeführt.

Ratten [4] = experiment: Hypoxia by subcutaneous Natriumnitroprussid, survival, rats; type: in vivo; conditions: Natriumnitroprussid 20 mg/kg s.c.
Experimental: as §1

Mäuse [5] = experiment: Swimming test at 40°C; type: in vivo; conditions: for Schwimmzeit: 40°C
From the text: (§2) Der Einfluss der beanspruchten Verbindung auf die physische Toleranz der Tiere wurde nach dem Schwimmtest der Mäuse und Ratten untersucht. Die Versuche wurden in einer Wanne von […] Fläche durchgeführt. Die Tiergruppe (8 bis I0 Mäuse oder Ratten) wurde ins Wasser gebracht und es wurde die Zeit der Schwimmfähigkeit bestimmt. Die neue Verbindung und γ -Amino- β - -phenylbuttersäurehydrochlorid wurden enteral und intraperitoneal I Stunde oder 3 Stunden vor dem Schwimmbeginn eingeführt. Die Untersuchung wurde sowohl nach der einmaligen als auch nach der chronischen (innerhalb von 20 Tagen einmal täglich) Einführung der genannten Verbindungen durchgeführt. Die Versuche wurden bei 3 Temperaturen angestellt: 2°C (Tabelle I7), 25°C (Tabelle I8) und 40°C (Tabelle I9).

Mäuse [6] = experiment: Anticonvulsant effect against Pikrotoxin, Bicucullin, Korazol, Thiosemikarbazid; type: in vivo
From the text: Ausserdem wurde die krampflösende Wirkung der neuen Verbindung untersucht. Die Untersuchung wurde an männlichen weissen Mäusen bei der Einführung von Pikrotoxin, Bicucullin, Korazol, Thiosemikarbazid durchgeführt.

Mäuse [7] = experiment: Phenamin-induced hypermotility in actometer; type: in vivo
Experimental: Eis wurde die Wirkung der beanspruchten Verbindung auf den durch Phenamin ausgelöston Effekt der Veränderung der Hypermotorik untersucht. Phenamin wurde den Mäusen intraperitoneal in Dosen von 3 und 5 mg/kg I0 Minuten nach der enteralen oder intraperitonealen Einführung der beanspruchten Verbindung und des Pyrazetams eingeführt. Die Tiere wurden in der Kammer des photoelektrischen Aktometers untergebracht. Die motorische Aktivität wurde nach der Zahl der Impulse innerhalb von 60 Minuten bestimmt. Die Angaben sind in der Tabelle 6 angeführt.

Ratten [8] = experiment: Habituation study over 6 months: motor activity of rats in actometer; type: in vivo
From the text: Das Ausbleiben der Gewöhnung an die beanspruchte Verbindung wurde auch in den Rattenversuchen festgestellt, die im Laufe von 6 Monaten zur Bestimmung der motorischen Aktivität der Ratten durchgeführt wurden.

Mäuse [9] = experiment: Hypoxia in hermetically closed vessel, survival; type: in vivo; conditions: closed vessel 80 cm³
From the text: Nach der zweiten Methode wurden die Mäuse in einem hermetisch verschlossenen Gefäss von 80 cm³ Inhalt untergebracht, dabei wurde die Luft nicht abgesaugt, und es wurden keine CO₂-Sorptionsmittel zugegeben. Die Prüfverbindungen wurden I Stunde vor dem Beginn des Versuchs intraperitoneal eingeführt (siehe Tabelle II).

Ratten [10] = experiment: Swimming test at 25°C; type: in vivo; conditions: 50,0 mg/kg
From the text: as §2

Mäuse [11] = experiment: Ethanol intoxication, survival; type: in vivo
From the text: Es wurde auch der Einfluss der erfindungsgemässen Verbindung auf die durch Athanol erzeugte Intoxikation untersucht. In den Versuchen an Mäusen (in jedem Versuch wurde eine Gruppe von I0 Tieren untersucht) wurde die Überlebensdauer der Tiere bestimmt. […] Athanol wurde I Stunde nach der Einführung der neuen Verbindung verabreicht. Die Ergebnisse dieser Untersuchung sind in der Tabelle 2 dargestellt.

Ratten [12] = experiment: Acute toxicity, rats; type: in vivo; conditions: intraperitoneal
Experimental: Die akute Toxizität der beanspruchten Verbindung wurde an Mäusen und Ratten (die Gruppe aus 9 bis I2 Tieren) bei der intravenösen, intraperitonealen Einführung der beanspruchten Verbindung sowie bei deren Einführung in den Magen bestimmt.
Es wurden der letale Ausgang, der Allgemeinzustand, die Vergiftungssymptome registriert. LD₅₀ wurde nach der Methode von Lichtfield und Wilcoxon bestimmt. LD₅₀ der neuen Verbindung beträgt für Mäuse bei der intravenösen Einführung 580 mg/kg, bei der intraperitonealen Einführung I450 mg/kg, bei der Einführung in den Magen 4600 mg/kg; für Ratten bei der intraperitonealen Einführung beträgt LD₅₀ 883 mg/kg, bei der Einführung in den Magen - über I500 mg/kg.

[13] = Solubility (description of the substance); type: physicochemical
[14] = Storage stability (description of the substance); type: physicochemical
[15] = male white mice, convulsants Pikrotoxin, Bicucullin, Korazol, Thiosemikarbazid

NCC(CC(=O)O)c1ccccc1 (stereo not drawn) [γ-Amino-β-phenylbutter-säurehydrochlorid, γ -Amino- β -phenylbuttersäurehydrochlorid, reference compound]
Spannung in V, Schwelle der emotionellen Reaktivität (Mäuse [1]; 100 mg/kg): 24,2±0,8 V
Spannung in V, die Schwelle der Aggressivität (Ratten [2]; 80,0 mg/kg): 44,6±0,6 V
Überlebensdauer (Mäuse [3]; Natriumnitroprussid 20 mg/kg s.c., 35 mg/kg chronic, 10 days once daily): 515,6±34 sec
Überlebensdauer (Ratten [4]; 35 mg/kg chronic, 10 days once daily): 876,6±90 sec
Überlebensdauer (Ratten [4]; 35 mg/kg single): 1359,0±100 sec
Schwimmzeit (Mäuse [5]; 35 mg/kg chronic, 20 days): 58±7,2 min
Schwimmzeit (Mäuse [5]; 35 mg/kg single): 37,8±8 min

γ -Amino- β -phenylbuttersäureorotat [Erfindungsgemässe Verbindung]
Spannung in V, Schwelle der Agressivität (Mäuse [1]; 37 mg/kg): 29,8±2,4 V
Spannung in V, die Schwelle der emotionnellen Reaktivität (Ratten [2]; 20,0 mg/kg): 23,4±0,8 V
Spannung in V, die Schwelle der emotionnellen Reaktivität (Ratten [2]; 40,0 mg/kg): 27,6±0,4 V
Spannung in V, die Schwelle der Aggressivität (Ratten [2]; 60,0 mg/kg): 44,8±0,6 V
Spannung in V, die Schwelle der emotionnellen Reaktivität (Ratten [2]; 150,0 mg/kg): 34,2±2,2 V
krampflösende Wirksamkeit (Mäuse [6]; Dosen von 50 bis 200 mg/kg): keine ausgeprägte krampflösende Wirksamkeit
Anteil von Tieren, bei denen der Krampf beobachtet wurde (Mäuse [6]; [15]): verringert nicht
Krampflatenzzeit (Mäuse [6]; [15]): verlängert sicher
Anzahl der Impulse im Aktometer innerhalb von 60 min (Mäuse [7]; 50 mg/kg + Phenamin 5 mg/kg i.p. 10 min later): 1884±111
Anzahl der Impulse im Aktometer innerhalb von 60 min (Mäuse [7]; 75 mg/kg + Phenamin 5 mg/kg i.p. 10 min later): 1125±141
Anzahl der Impulse im Aktometer innerhalb von 60 min (Mäuse [7]; 100 mg/kg + Phenamin 5 mg/kg i.p. 10 min later): 812±62
Anzahl der Impulse im Aktometer innerhalb von 60 min (Mäuse [7]; 150 mg/kg + Phenamin 5 mg/kg i.p. 10 min later): 811±98
Zahl der Impulse im Aktometer innerhalb von 30 min (Ratten [8]; day 1, 25 mg/kg): 183±24
Zahl der Impulse im Aktometer innerhalb von 30 min (Ratten [8]; day 1, 75 mg/kg): 111±13
Zahl der Impulse im Aktometer innerhalb von 30 min (Ratten [8]; day 1, 200 mg/kg): 15±16
Zahl der Impulse im Aktometer innerhalb von 30 min (Ratten [8]; day 35, 25 mg/kg): 171±18
Zahl der Impulse im Aktometer innerhalb von 30 min (Ratten [8]; day 35, 75 mg/kg): 129±14
Zahl der Impulse im Aktometer innerhalb von 30 min (Ratten [8]; day 35, 200 mg/kg): 64±18
Zahl der Impulse im Aktometer innerhalb von 30 min (Ratten [8]; day 70, 25 mg/kg): 126±27
Zahl der Impulse im Aktometer innerhalb von 30 min (Ratten [8]; day 70, 75 mg/kg): 81±13
Zahl der Impulse im Aktometer innerhalb von 30 min (Ratten [8]; day 70, 200 mg/kg): 43±15
Zahl der Impulse im Aktometer innerhalb von 30 min (Ratten [8]; day 85, 25 mg/kg): 147±19
Zahl der Impulse im Aktometer innerhalb von 30 min (Ratten [8]; day 85, 75 mg/kg): 109±17
Zahl der Impulse im Aktometer innerhalb von 30 min (Ratten [8]; day 85, 200 mg/kg): 67±21
Zahl der Impulse im Aktometer innerhalb von 30 min (Ratten [8]; day 107, 25 mg/kg): 138±20
Zahl der Impulse im Aktometer innerhalb von 30 min (Ratten [8]; day 107, 75 mg/kg): 137±14
Zahl der Impulse im Aktometer innerhalb von 30 min (Ratten [8]; day 107, 200 mg/kg): 79±17
Zahl der Impulse im Aktometer innerhalb von 30 min (Ratten [8]; day 120, 25 mg/kg): 145±23
Zahl der Impulse im Aktometer innerhalb von 30 min (Ratten [8]; day 120, 75 mg/kg): 118±28
Zahl der Impulse im Aktometer innerhalb von 30 min (Ratten [8]; day 120, 200 mg/kg): 71±13
Zahl der Impulse im Aktometer innerhalb von 30 min (Ratten [8]; day 138, 25 mg/kg): 168±32
Zahl der Impulse im Aktometer innerhalb von 30 min (Ratten [8]; day 138, 75 mg/kg): 169±31
Zahl der Impulse im Aktometer innerhalb von 30 min (Ratten [8]; day 138, 200 mg/kg): 103±13
Zahl der Impulse im Aktometer innerhalb von 30 min (Ratten [8]; day 154, 25 mg/kg): 127±17
Zahl der Impulse im Aktometer innerhalb von 30 min (Ratten [8]; day 154, 75 mg/kg): 181±31
Zahl der Impulse im Aktometer innerhalb von 30 min (Ratten [8]; day 154, 200 mg/kg): 85±24
Zahl der Impulse im Aktometer innerhalb von 30 min (Ratten [8]; day 180, 25 mg/kg): 154±30
Zahl der Impulse im Aktometer innerhalb von 30 min (Ratten [8]; day 180, 75 mg/kg): 148±13
Zahl der Impulse im Aktometer innerhalb von 30 min (Ratten [8]; day 180, 200 mg/kg): 117±18
Überlebensdauer (Mäuse [9]; 50,0 mg/kg i.p. 1 h before): 10,8±1,2 min
Überlebensdauer (Mäuse [9]; 100,0 mg/kg i.p. 1 h before): 15,2±1,4 min
Überlebensdauer (Mäuse [9]; 200,0 mg/kg i.p. 1 h before): 27,6±2,6 min
Überlebensdauer (Mäuse [3]; Natriumnitroprussid 20 mg/kg s.c. 60 min after compound, 50 mg/kg single): 740,3±68 sec
Überlebensdauer (Mäuse [3]; Natriumnitroprussid 20 mg/kg s.c., 50 mg/kg chronic, 10 days once daily): 1083,7±80 sec
Überlebensdauer (Ratten [4]; 50 mg/kg chronic, 10 days once daily): 1133,0±54 sec
Überlebensdauer (Ratten [4]; 50 mg/kg single): 1247,0±94 sec
Schwimmzeit, Ratten (Ratten [10]): 8,2±0,5
Schwimmzeit (Mäuse [5]; 50 mg/kg single): 57,6±5,6 min
Schwimmdauer grösser um das ...fache bei einer Temperatur von 40°C (Mäuse [5]; after 20 days chronic administration, Tabelle I9, compared with γ-Amino-β-phenylbuttersäurehydrochlorid as worded): 2,5 fache
Überlebensdauer nach der Einführung von Äthanol (Mäuse [11]; 50 mg/kg enteral chronic, 14 days + Äthylalkohol 11 ml/kg): 283,8±16 sec
Überlebensdauer nach der Einführung von Äthanol (Mäuse [11]; 50 mg/kg single + Äthylalkohol 11 ml/kg): 213,6±8 sec
Verlängerung der Überlebensdauer der Tiere (Mäuse [11]; chronic administration, ethanol intoxication): 30%
LD₅₀ (Ratten [12]): 883 mg/kg
Löslichkeit in wässrigen Alkalilösungen ([13]; aqueous alkali solutions): löslich
Wasserlöslichkeit ([13]; water): schwer wasserlöslich
Beständigkeit bei der Aufbewahrung [14]: beständig
